The NIST ThermoML archive (doi:10.1021/je050031f)

Assays:
[1] = refractive index (Na D-line) (dimensionless); xn = mol fraction of the nth substance listed; details: 100.8 kPa, Liquid, Standard Abbe refractometry
[2] = xn = mol fraction of the nth substance listed; details: 100.8 kPa, Liquid

CC(C)OC(C)C [diisopropyl ether] + CCO
Details	mass density, 288.15 K [kg/m3]	mass density, 298.15 K [kg/m3]	mass density, 308.15 K [kg/m3]	refractive index, 288.15 K	refractive index, 298.15 K	refractive index, 308.15 K	viscosity, 288.15 K [mPa·s]	viscosity, 298.15 K [mPa·s]	viscosity, 308.15 K [mPa·s]
[1], x1 = 0.05	–	–	–	1.3657	1.36097	1.35649	–	–	–
[1], x1 = 0.1	–	–	–	1.36697	1.36212	1.35757	–	–	–
[1], x1 = 0.15	–	–	–	1.368	1.36316	1.35852	–	–	–
[1], x1 = 0.2	–	–	–	1.36883	1.36395	1.35926	–	–	–
[1], x1 = 0.25	–	–	–	1.36952	1.36457	1.3598	–	–	–
[1], x1 = 0.3	–	–	–	1.37013	1.36509	1.36021	–	–	–
[1], x1 = 0.35	–	–	–	1.37062	1.3655	1.36057	–	–	–
[1], x1 = 0.4	–	–	–	1.37102	1.36587	1.36083	–	–	–
[1], x1 = 0.45	–	–	–	1.37134	1.36612	1.36102	–	–	–
[1], x1 = 0.5	–	–	–	1.37158	1.36632	1.36113	–	–	–
[1], x1 = 0.55	–	–	–	1.37175	1.36644	1.36119	–	–	–
[1], x1 = 0.6	–	–	–	1.3719	1.36651	1.36118	–	–	–
[1], x1 = 0.65	–	–	–	1.37197	1.36652	1.36116	–	–	–
[1], x1 = 0.7	–	–	–	1.37196	1.36651	1.36112	–	–	–
[1], x1 = 0.75	–	–	–	1.37192	1.36645	1.36103	–	–	–
[1], x1 = 0.8	–	–	–	1.37188	1.36635	1.36089	–	–	–
[1], x1 = 0.85	–	–	–	1.37178	1.36621	1.36071	–	–	–
[1], x1 = 0.9	–	–	–	1.37162	1.36597	1.36042	–	–	–
[1], x1 = 0.95	–	–	–	1.37141	1.36566	1.36	–	–	–
[1], x1 = 1	–	–	–	1.37126	1.36537	1.35954	–	–	–
[2], x1 = 0.05	788.3	779.8	771	–	–	–	1.176	0.976	0.815
[2], x1 = 0.1	783.4	774.8	765.8	–	–	–	1.047	0.876	0.737
[2], x1 = 0.15	778.8	770	760.9	–	–	–	0.946	0.793	0.671
[2], x1 = 0.2	774.7	765.7	756.4	–	–	–	0.851	0.718	0.613
[2], x1 = 0.25	770.7	761.4	752	–	–	–	0.772	0.655	0.562
[2], x1 = 0.3	766.9	757.5	747.9	–	–	–	0.705	0.605	0.52
[2], x1 = 0.35	763.3	753.9	744.2	–	–	–	0.649	0.559	0.484
[2], x1 = 0.4	760	750.4	740.7	–	–	–	0.6	0.519	0.452
[2], x1 = 0.45	756.9	747.1	737.3	–	–	–	0.559	0.487	0.427
[2], x1 = 0.5	753.8	744.1	734.1	–	–	–	0.523	0.457	0.403
[2], x1 = 0.55	751	741.2	731.1	–	–	–	0.494	0.432	0.382
[2], x1 = 0.6	748.3	738.4	728.3	–	–	–	0.467	0.413	0.364
[2], x1 = 0.65	745.7	735.8	725.6	–	–	–	0.445	0.393	0.349
[2], x1 = 0.7	743.2	733.2	723	–	–	–	0.424	0.378	0.335
[2], x1 = 0.75	740.7	730.7	720.5	–	–	–	0.407	0.363	0.325
[2], x1 = 0.8	738.3	728.3	718	–	–	–	0.393	0.349	0.315
[2], x1 = 0.85	735.8	725.8	715.5	–	–	–	0.379	0.338	0.306
[2], x1 = 0.9	733.5	723.4	713.1	–	–	–	0.367	0.33	0.298
[2], x1 = 0.95	731.1	720.9	710.6	–	–	–	0.367	0.319	0.29
[2], x1 = 1	729	718.6	707.9	–	–	–	0.347	0.313	0.283
